Measured values published in patent publication US20010039952A1, “ULTRASOUND ENHANCED CHEMOTHERAPY” (Walter A. Hacker, Ph. D, priority 1998, published 2001).

Key:
[1] = test system: peritoneal carcinomatosis; assay: Instillation of chemotherapy directly into the abdomen with low energy ultrasound in a patient with peritoneal carcinomatosis (Examples III, IV); type: in vivo; conditions: with ultrasound at less than 100 kHz and less than 50 W; intraperitoneal instillation
Protocol: The chosen drug is dissolved in 100 ml of normal saline, injected into the catheter and followed by another 100 ml of normal saline for flushing. The patient's position is shifted every few minutes for an hour to disperse the drug. […] The chosen drug is bleomycin (15 units), 5-fluorouracil(1000 mg), thiotepa (45 mg) Adriamycin (30 mg) cisplatin, or a-IFN.
The procedure set forth in Example III is repeated with the chosen drug administered with microbubbles and the interval of repeated doses is further increased.

hepatic metastases = conditions: human, in vivo

Compound | interval of repeated doses [1] | drug toxicity (hepatic metastases)
COc1cccc2c1C(=O)c1c(O)c3c(c(O)c1C2=O)C[C@@](O)(C(=O)CO)C[C@@H]3O[C@H]1C[C@H](N)[C@H](O)[C@H](C)O1 [Adriamycin, Doxorubicin] | increases the interval of repeated doses | less drug toxicity
N.N.[Cl][Pt][Cl] [cisplatin] | increases the interval of repeated doses | 
O=c1[nH]c(=O)n([C@H]2C[C@H](O)[C@@H](CO)O2)cc1F [flexuridine] |  | less drug toxicity
O=c1[nH]cc(F)c(=O)[nH]1 [fluorouracil] | increases the interval of repeated doses | less drug toxicity
S=P(N1CC1)(N1CC1)N1CC1 [thiotepa] | increases the interval of repeated doses | 
bleomycin | increases the interval of repeated doses | 
